The source made the active and inactive calls.
Columns and labels:
Cytochrome P450 2C19 = Cytochrome P450 2C19 (Homo sapiens, UniProt P33261); assay: Cytochrome panel assay with activity outcomes. Panel member name: p450-cyp2c19 Compounds with AC50 equal or less than 10 uM are considered active; format: functional
Cytochrome P450 1A2 = molecular target: T1, Cytochrome P450 1A2 (Homo sapiens, UniProt P05177);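 note: PubChem cytochrome P450 panel assay, CYP1A2 panel member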
T1 sequence (P05177 whole entry): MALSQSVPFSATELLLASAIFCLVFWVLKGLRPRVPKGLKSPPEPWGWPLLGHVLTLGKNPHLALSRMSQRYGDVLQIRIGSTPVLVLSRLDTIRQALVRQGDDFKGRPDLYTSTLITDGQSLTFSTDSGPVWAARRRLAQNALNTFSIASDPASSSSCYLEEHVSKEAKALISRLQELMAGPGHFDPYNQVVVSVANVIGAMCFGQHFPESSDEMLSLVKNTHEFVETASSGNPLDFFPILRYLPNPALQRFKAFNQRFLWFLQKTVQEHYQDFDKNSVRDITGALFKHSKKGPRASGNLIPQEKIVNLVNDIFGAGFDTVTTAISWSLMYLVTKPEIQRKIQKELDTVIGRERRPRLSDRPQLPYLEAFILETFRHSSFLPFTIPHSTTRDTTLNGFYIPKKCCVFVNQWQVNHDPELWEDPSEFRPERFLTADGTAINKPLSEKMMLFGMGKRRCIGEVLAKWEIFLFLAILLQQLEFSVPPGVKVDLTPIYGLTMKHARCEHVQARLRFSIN

Cytochrome P450 3A4 = Cytochrome P450 3A4 (Homo sapiens, UniProt P08684);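 note: CYP3A4 tested as one member of a cytochrome P450 panel screen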
Chain of Cytochrome P450 3A4 (P08684 whole entry): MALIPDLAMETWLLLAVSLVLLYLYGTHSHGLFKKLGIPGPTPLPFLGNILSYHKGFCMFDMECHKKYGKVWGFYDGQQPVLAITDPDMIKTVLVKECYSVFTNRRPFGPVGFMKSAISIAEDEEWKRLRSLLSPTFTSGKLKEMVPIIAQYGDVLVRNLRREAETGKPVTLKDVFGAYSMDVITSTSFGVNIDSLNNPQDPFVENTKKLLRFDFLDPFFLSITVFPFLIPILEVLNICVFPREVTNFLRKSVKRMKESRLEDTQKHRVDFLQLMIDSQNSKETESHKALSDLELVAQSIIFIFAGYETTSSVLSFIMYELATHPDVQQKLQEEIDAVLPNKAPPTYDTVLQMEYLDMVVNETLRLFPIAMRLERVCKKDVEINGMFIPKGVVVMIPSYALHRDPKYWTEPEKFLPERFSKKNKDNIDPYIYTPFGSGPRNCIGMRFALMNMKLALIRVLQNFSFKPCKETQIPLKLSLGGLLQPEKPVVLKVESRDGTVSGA

[1] = Luminescence Cell-Based Dose Confirmation HTS to Identify Activators of 5'UTR Stem-Loop Driven Alpha-Synuclein mRNA Translation in H4 Neuroglioblastoma Cells. [Related pubchem assays: 1829 (Project Summary), 1814 (Primary HTS)]; format: functional
[2] = Luminescence Cell-Based Dose Response HTS to Identify Activators of Luciferase Translation or Activity in H4 […] Cells. [Related pubchem assays: 1829 (Project Summary), 1814 (Primary HTS)]; format: functional
H4 = assay: Luminescence Cell-Based Dose Response HTS to Identify Activators of 5'UTR Stem-Loop Driven Prion Protein mRNA Translation in H4 Neuroglioblastoma Cells. [Related pubchem assays: 1829 (Project Summary), 1814 (Primary HTS)]; format: functional; conditions: Homo sapiens
Cytochrome P450 2C9 = Cytochrome P450 2C9 (Homo sapiens, UniProt P11712)
Chain of Cytochrome P450 2C9 (P11712 whole entry): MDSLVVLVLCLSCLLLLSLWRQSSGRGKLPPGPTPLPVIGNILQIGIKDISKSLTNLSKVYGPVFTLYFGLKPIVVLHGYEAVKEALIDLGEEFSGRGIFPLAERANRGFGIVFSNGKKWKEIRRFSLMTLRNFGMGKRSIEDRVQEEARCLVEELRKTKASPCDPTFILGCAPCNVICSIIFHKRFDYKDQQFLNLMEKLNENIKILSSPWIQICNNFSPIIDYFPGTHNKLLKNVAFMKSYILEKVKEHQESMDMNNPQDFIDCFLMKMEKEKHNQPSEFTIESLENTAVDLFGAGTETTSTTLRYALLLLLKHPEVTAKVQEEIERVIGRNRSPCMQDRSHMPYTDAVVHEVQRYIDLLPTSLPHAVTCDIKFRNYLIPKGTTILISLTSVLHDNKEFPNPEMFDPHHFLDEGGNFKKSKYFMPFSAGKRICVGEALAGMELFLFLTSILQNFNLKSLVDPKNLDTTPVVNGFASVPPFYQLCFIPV

Cytochrome P450 2D6 = Cytochrome P450 2D6 (Homo sapiens, UniProt P10635);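 note: CYP2D6 member of a cytochrome P450 panel assay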
Chain of Cytochrome P450 2D6 (P10635 whole entry): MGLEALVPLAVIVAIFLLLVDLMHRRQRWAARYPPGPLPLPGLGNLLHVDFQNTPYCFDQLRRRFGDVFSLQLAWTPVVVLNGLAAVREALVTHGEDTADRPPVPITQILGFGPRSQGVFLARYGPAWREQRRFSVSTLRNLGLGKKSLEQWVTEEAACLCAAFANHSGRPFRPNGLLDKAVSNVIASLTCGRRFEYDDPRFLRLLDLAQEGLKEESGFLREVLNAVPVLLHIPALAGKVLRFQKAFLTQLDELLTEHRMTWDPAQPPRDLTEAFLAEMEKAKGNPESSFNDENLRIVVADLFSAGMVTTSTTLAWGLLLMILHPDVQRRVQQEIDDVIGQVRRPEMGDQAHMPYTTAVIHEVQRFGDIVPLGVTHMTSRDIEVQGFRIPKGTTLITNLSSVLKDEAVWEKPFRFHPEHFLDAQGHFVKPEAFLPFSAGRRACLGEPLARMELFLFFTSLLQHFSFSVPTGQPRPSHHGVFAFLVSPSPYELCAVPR

[3] = NIH-3T3 fibroblast cytotoxicity, dose response, cytotoxicity control, cell-based, fluorescence, Alamar Blue, secondary assay (AID 2327); format: functional;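 note: NIH-3T3 mouse fibroblasts cultured with fluconazole at 8 µg/mL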
[4] = fluconazole-exposed Candida albicans growth modulators – fluorescence, retest, confirmation (AID 2467); format: functional, cell-based
[5] = molecular target: T2, Corticotropin-releasing factor receptor 2/Corticotropin-releasing factor-binding protein (Homo sapiens, UniProt P24387+Q13324); assay: Dose Response confirmation of uHTS hits for small molecule antagonists of the CRF-binding protein and CRF-R2 receptor complex.; format: functional; conditions: read-out: IC50_Mean
T2 sequence (Q13324 whole entry): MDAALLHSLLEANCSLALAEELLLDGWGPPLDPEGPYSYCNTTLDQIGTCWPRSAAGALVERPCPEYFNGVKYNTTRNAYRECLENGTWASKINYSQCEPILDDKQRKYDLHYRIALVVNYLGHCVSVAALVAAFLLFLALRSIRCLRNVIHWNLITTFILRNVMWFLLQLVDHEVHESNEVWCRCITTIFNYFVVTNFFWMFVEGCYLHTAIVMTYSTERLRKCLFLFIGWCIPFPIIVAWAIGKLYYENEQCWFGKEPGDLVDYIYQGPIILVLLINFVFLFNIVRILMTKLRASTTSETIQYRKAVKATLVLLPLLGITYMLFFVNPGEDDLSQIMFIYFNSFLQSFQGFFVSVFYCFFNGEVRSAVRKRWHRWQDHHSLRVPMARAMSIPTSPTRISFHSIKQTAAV
T2 sequence (P24387 whole entry): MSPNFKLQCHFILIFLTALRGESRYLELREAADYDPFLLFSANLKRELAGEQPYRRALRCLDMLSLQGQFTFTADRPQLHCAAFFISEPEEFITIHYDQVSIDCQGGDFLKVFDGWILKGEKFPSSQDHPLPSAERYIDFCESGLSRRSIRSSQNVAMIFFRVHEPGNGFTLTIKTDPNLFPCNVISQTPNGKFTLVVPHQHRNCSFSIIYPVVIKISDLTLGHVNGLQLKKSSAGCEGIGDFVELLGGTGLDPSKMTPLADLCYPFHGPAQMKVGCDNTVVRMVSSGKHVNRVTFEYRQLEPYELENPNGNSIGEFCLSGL

[6] = molecular target: T2, Corticotropin-releasing factor receptor 2/Corticotropin-releasing factor-binding protein; assay: activators of CRF receptor 2 with binding protein – uHTS hits, confirmation (AID 602473); format: functional; conditions: read-out: EC50_Mean
[7] = system: Streptococcus sp. 'group A'; assay: Streptococcus pyogenes SK(-)GAS viability under kanamycin – luminescence, BacTiterGlo, confirmation, counter-screen for streptokinase expression inhibitor project, dose response (AID 1900); format: functional, organism-based
Streptococcus = assay: GAS UMAA2166 growth inhibition – luminescence, BacTiterGlo, counter-screen for streptokinase expression inhibitor project, dose response (AID 1915); format: functional, organism-based;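 note: potency for reduction of bacterial viability or growth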

Chain of Cytochrome P450 2C19 (P33261 whole entry): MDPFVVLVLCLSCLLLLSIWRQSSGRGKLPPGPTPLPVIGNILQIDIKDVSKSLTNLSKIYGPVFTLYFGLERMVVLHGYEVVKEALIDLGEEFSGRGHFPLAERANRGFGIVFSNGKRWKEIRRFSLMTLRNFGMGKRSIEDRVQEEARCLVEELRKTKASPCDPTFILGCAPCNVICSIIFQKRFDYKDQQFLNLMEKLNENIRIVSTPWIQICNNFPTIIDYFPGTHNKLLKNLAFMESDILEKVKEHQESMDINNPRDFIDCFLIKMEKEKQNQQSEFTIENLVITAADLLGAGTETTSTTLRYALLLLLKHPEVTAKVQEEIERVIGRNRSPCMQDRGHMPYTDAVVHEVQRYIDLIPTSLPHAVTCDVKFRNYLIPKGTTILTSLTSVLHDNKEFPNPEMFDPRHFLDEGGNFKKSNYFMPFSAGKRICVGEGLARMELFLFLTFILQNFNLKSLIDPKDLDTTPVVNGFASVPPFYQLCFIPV

Structure (SMILES): O=C1[C@H]2[C@H]3[C@H](O)[C@H](O)C/C(=N/OCc4ccccc4)[C@@H]3CC[C@@H]2C(=O)N1Cc1ccc2c(c1)OCO2
- AC50 (Cytochrome P450 2C19; read-out: AC50): 3.98 µM (inconclusive)

Structure (SMILES): Cc1nc(-c2cccc(NC(=O)c3cc4cc(Br)ccc4oc3=O)c2)cs1
- AC50 (Cytochrome P450 2C19; read-out: AC50): 20 µM (inconclusive)
- AC50 (Cytochrome P450 1A2): 8.91 µM (inconclusive)
- AC50 (Cytochrome P450 3A4): 10 µM (inconclusive)

Structure (SMILES): Cc1nc2nc(NC(=O)c3ccco3)nn2c(C)c1Cl
- EC50 [1]: 0.817 µM (active)
- EC50 [2]: 14.3 µM (active)
- EC50 (H4): 15.5 µM (active)

Structure (SMILES): CCC(=O)N1CCn2c1nc1ccccc12
- AC50 (Cytochrome P450 2C19; read-out: AC50): 28.2 µM (inconclusive)
- AC50 (Cytochrome P450 2C9): 1.41 µM (inconclusive)

Structure (SMILES): Cc1ccc(C)c(C(=N)c2ccccc2Cc2ccccc2)c1
- AC50 (Cytochrome P450 2D6): 3.16 µM (inconclusive)

Structure (SMILES): COc1cc(SC)ccc1C(=O)OCC(=O)NC1CC1
- EC50 [3]: > 150 µM (inactive)
- EC50 [4]: > 38 µM (not active)

Structure (SMILES): COc1ccc(/C=C/c2nc(O)cc(-c3ccccc3)n2)cc1
- IC50 [5]: > 47.1 µM (inactive)
- EC50 [6]: > 53 µM (inactive)

Structure (SMILES): O=C(N/N=C/c1ccc(N2CCOCC2)s1)c1ccccc1Cl
- EC50 [1]: 20.9 µM (active)
- EC50 [2]: 12 µM (active)
- EC50 (H4): 48.6 µM (active)

Structure (SMILES): O=C(Nc1ccccc1)C(Cc1ccccc1)NC(=O)C12CC3CC(CC(C3)C1)C2 (stereo not drawn)
- AC50 (Cytochrome P450 2D6): 0.00794 µM (inconclusive)

Structure (SMILES): O=C(O)CS(=O)(=O)C(c1ccccc1)c1ccccc1
- AC50 (Cytochrome P450 2C19): inconclusive

Structure (SMILES): Clc1ccc2c(N[C@H]3CC[C@H](N4CCCCC4)CC3)ccnc2c1
- AC50 (Cytochrome P450 2C19): inconclusive
- AC50 (Cytochrome P450 2D6): 3.98 µM (inconclusive)

Structure (SMILES): FC(F)(F)c1nc2ccccc2nc1N/N=C\c1ccccc1
- AC50 (Cytochrome P450 2C19; read-out: AC50): 39.8 µM (inconclusive)
- AC50 (Cytochrome P450 2D6): 14.1 µM (inconclusive)
- AC50 (Cytochrome P450 2C9): 20 µM (inconclusive)

Structure (SMILES): Cc1cc(O)c(C(C)C)cc1CN1CCCCC1
- AC50 (Cytochrome P450 2D6): 3.98 µM (inconclusive)
- AC50 (Cytochrome P450 1A2): 1 µM (inconclusive)

Structure (SMILES): CC(C)(C)c1ccc(OCC(=O)NNC(=S)NC(=O)c2ccco2)c(Br)c1
- EC50 [7]: < 0.06 µM (active)
- EC50 (Streptococcus): 0.1 µM (active)

Structure (SMILES): CC1(O)c2ccccc2C(=O)N1CCc1ccccc1F (stereo not drawn)
- IC50 [5]: > 47.1 µM (inactive)
- EC50 [6]: > 53 µM (inactive)
- AC50 (Cytochrome P450 2D6): 28.2 µM (inconclusive)
- AC50 (Cytochrome P450 1A2): 20 µM (inconclusive)

Structure (SMILES): COCCNC(=O)CCn1c(=O)oc2ccccc21
- AC50 (Cytochrome P450 2C19; read-out: AC50): 1.41 µM (inconclusive)

Structure (SMILES): O=C(CSCc1cccc(CSCC(=O)Nc2ccccc2)n1)Nc1ccccc1
- EC50 [3]: > 150 µM (inactive)
- EC50 [4]: > 38 µM (not active)

Structure (SMILES): O=C(NNS(=O)(=O)c1ccc(Cl)cc1)NC1CCCCC1
- AC50 (Cytochrome P450 2C19; read-out: AC50): 10 µM (inconclusive)
- AC50 (Cytochrome P450 2C9): 17.8 µM (inconclusive)

Structure (SMILES): COC(=O)[C@@]1(Cc2ccccc2)[C@H]2c3cc(C(=O)N4CCCC4)n(Cc4ccc(C)o4)c3C[C@H]2CN1C(=O)c1ccccc1
- AC50 (Cytochrome P450 2D6): 39.8 µM (inconclusive)
- AC50 (Cytochrome P450 1A2): 12.6 µM (inconclusive)

Structure (SMILES): CCOc1ccccc1NC(=O)CNC(=O)Cc1ccccc1
- IC50 [5]: > 47.1 µM (inactive)
- EC50 [6]: > 53 µM (inactive)

Structure (SMILES): CCN1CCN(c2nc3c(c(=O)[nH]c(=O)n3C)n2CCCSc2ncccn2)CC1
- AC50 (Cytochrome P450 2C19): inconclusive

Structure (SMILES): O=C(Nc1ccc2c(c1)OCCO2)c1cc2sccc2n1Cc1ccc(F)cc1
- EC50 [1]: 0.94 µM (active)
- EC50 [2]: 3.85 µM (active)
- EC50 (H4): > 120 µM (not active)

Structure (SMILES): CCOc1nc(NCc2ccco2)nc(Nc2ccccc2F)n1
- EC50 [1]: 6.54 µM (active)
- EC50 [2]: 12.9 µM (active)
- EC50 (H4): 69.9 µM (active)
